Measurements as given in US12577216B2, “Triazine benzoate compound and application thereof” (SHENYANG SINOCHEM AGROCHEMICALS R&D CO., LTD., priority 2020, dated 2026).
Where two headings read alike, the source gives them in different places.

Assays:
Type in all cases: in vivo
piemarker = experiment: Determination of herbicidal activity, post-emergence stem and leaf spray, piemarker; conditions: for Herbicidal activity for Piemarker, control effect %: Table 4 parallel comparison; for pest or weed control at 150 g/ha: post-emergence, read-out: control effects on piemarker
Description: (§1) Seeds of broadleaf weeds (zinnia and piemarker) or grassy weeds (green bristlegrass and barnyard grass) were respectively sown in a paper cup having a diameter of 7 cm and containing nutrient soil; after sowing, the seeds were covered with 1 cm of soil; the soil was pressed and watered, and then the seeds were cultivated in a greenhouse according to a conventional method; and stems and leaves were sprayed after 2-3 leaf stage of the weeds.
(§2) After the original medicinal acetone was dissolved, the test requires to use 1‰ of Tween 80 to stand in running water to prepare the solution to be tested with a required concentration. According to the design dose of the test, spray treatment was carried out on a track-type crop sprayer (designed and produced by British Engineer Research Ltd.) (spray pressure is 1.95 kg/cm^2, spray volume is 500 L/hm^2 and track speed is 1.48 km/h). The test was repeated for three times. The test material was treated and then placed in an operation hall. The medicinal liquid was naturally dried in the shade, and then was placed in a greenhouse and managed according to the conventional method. The response of the weeds to the drug was observed and recorded. After treatment, the control effects of the test drug on the weeds were visually inspected regularly, expressed by 0-100%. “0” represents no control effect and “100%” represents complete killing.

zinnia = experiment: Determination of herbicidal activity, post-emergence stem and leaf spray, zinnia; conditions: for control effects on zinnia: 150 g a.i./hm^2, after emergence, visual 0-100%; for Herbicidal activity for Zinnia, control effect %: Table 3 parallel comparison
Description: as §1, §2

green bristlegrass = experiment: Determination of herbicidal activity, post-emergence stem and leaf spray, green bristlegrass; conditions: Table 5 parallel comparison
Description: as §1, §2

[1] = 150 g a.i./hm^2, after emergence, visual 0-100%
[2] = 2.34 g a.i./hm^2, after emergence
[3] = 9.375 g a.i./hm^2, after emergence
[4] = 37.5 g a.i./hm^2, after emergence

SMILES | control effects on piemarker (piemarker; [1]) [%] | control effects on zinnia (zinnia) [%] | Herbicidal activity for Piemarker, control effect % (piemarker; [2]) [%] | Herbicidal activity for Piemarker, control effect % (piemarker; [3]) [%] | Herbicidal activity for Zinnia, control effect % (zinnia; [2]) [%] | Herbicidal activity for Zinnia, control effect % (zinnia; [3]) [%] | pest or weed control at 150 g/ha (piemarker; [1]) [%] | Herbicidal activity for Green Bristlegrass, control effect % (green bristlegrass; [3]) [%] | Herbicidal activity for Green Bristlegrass, control effect % (green bristlegrass; [4]) [%] | pest or weed control at 150 g/ha (piemarker) [%]
CC(OC(=O)c1cc(-n2c(=O)n(C)c(=S)n(C)c2=O)ccc1Cl)C(=O)OCCCl (racemic) [Compound 138] | 100 | – | – | – | – | – | – | – | – | –
CC(OC(=O)c1cc(-n2c(=O)n(C)c(=S)n(C)c2=O)c(F)cc1Cl)C(=O)OCCCl (racemic) [Compound 265] | 100 | 100 | 90 | 100 | – | – | – | – | – | –
CC(OC(=O)c1cc(-n2c(=O)n(C)c(=S)n(C)c2=O)c(F)cc1Cl)C(=O)OCCCCl (racemic) [Compound 268] | 100 | 100 | – | – | 85 | 100 | – | – | – | –
CC(OC(=O)c1cc(-n2c(=O)n(C)c(=S)n(C)c2=O)ccc1Cl)C(=O)OCC1CC1 (stereo not drawn) [Compound 160] | 100 | – | – | – | – | – | – | – | – | –
Cn1c(=S)n(C)c(=O)n(-c2cc(C(=O)OCC(=O)OCCCCl)c(Cl)cc2F)c1=O [Compound 222, 2-chloro-4-fluoro-5-(3,5-dimethyl-2,6-dioxo-4-thio-1,3,5-triazine-1-yl)benzoic acid (3-chloropropoxycarbonyl) methyl ester] | – | 100 | – | – | 100 | 100 | 100 | 60 | 90 | –
Cn1c(=S)n(C)c(=O)n(-c2cc(C(=O)OCC(=O)OCC3COC(C)(C)O3)c(Cl)cc2F)c1=O (stereo not drawn) [Compound 247] | 100 | 100 | – | – | 100 | 100 | – | 60 | 90 | –
CC(OC(=O)c1cc(-n2c(=O)n(C)c(=S)n(C)c2=O)c(F)cc1Cl)C(=O)OCCF (stereo not drawn) [Compound 264] | 100 | 100 | – | – | 90 | 100 | – | – | – | –
C[C@@H](OC(=O)c1cc(-n2c(=O)n(C)c(=S)n(C)c2=O)c(F)cc1Cl)C(=O)OCCCl [Compound 266] | – | 100 | – | – | 85 | 100 | 100 | – | – | –
C[C@H](OC(=O)c1cc(-n2c(=O)n(C)c(=S)n(C)c2=O)c(F)cc1Cl)C(=O)OCCCl [Compound 267] | – | 100 | 90 | 100 | 85 | 100 | 100 | – | – | –
C[C@@H](OC(=O)c1cc(-n2c(=O)n(C)c(=S)n(C)c2=O)c(F)cc1Cl)C(=O)OCCCCl [Compound 269] | 100 | 100 | – | – | 80 | 95 | – | – | – | –
C[C@H](OC(=O)c1cc(-n2c(=O)n(C)c(=S)n(C)c2=O)c(F)cc1Cl)C(=O)OCCCCl [Compound 270] | 100 | 100 | 85 | 100 | 90 | 100 | – | – | – | –
CC(OC(=O)c1cc(-n2c(=O)n(C)c(=S)n(C)c2=O)c(F)cc1Cl)C(=O)OCCCCCl (stereo not drawn) [Compound 273] | 100 | 100 | 90 | 100 | – | – | – | – | – | –
CC(OC(=O)c1cc(-n2c(=O)n(C)c(=S)n(C)c2=O)c(F)cc1Cl)C(=O)OC/C=C/Cl (stereo not drawn) [Compound 281, (E)-2-chloro-4-fluoro-5-(3,5-dimethyl-2,6-dioxo-4-thio-1,3,5-triazine-1-yl)benzoic acid (1-(3-chloroallyloxycarbonyl))ethyl ester] | – | 100 | – | – | 90 | 100 | – | 60 | 90 | 100
CC(OC(=O)c1cc(-n2c(=O)n(C)c(=S)n(C)c2=O)c(F)cc1Cl)C(=O)OCC=C(Cl)Cl (stereo not drawn) [Compound 283] | 100 | 100 | – | – | 100 | 100 | – | 50 | 85 | –
CC(OC(=O)c1cc(-n2c(=O)n(C)c(=S)n(C)c2=O)c(F)cc1Cl)C(=O)OCc1ccccc1 (stereo not drawn) [Compound 289] | 100 | 100 | – | – | – | – | – | – | – | –
CC(OC(=O)c1cc(-n2c(=O)n(C)c(=S)n(C)c2=O)c(F)cc1Cl)C(=O)OC/C=C/c1ccccc1 (stereo not drawn) [Compound 290] | 100 | 100 | – | – | – | – | – | – | – | –
CC(OC(=O)c1cc(-n2c(=O)n(C)c(=S)n(C)c2=O)c(F)cc1Cl)C(=O)OCC1CCCC1 (stereo not drawn) [Compound 293] | 100 | 100 | 85 | 100 | 90 | 100 | – | – | – | –
CC(OC(=O)c1cc(-n2c(=O)n(C)c(=S)n(C)c2=O)c(F)cc1Cl)C(=O)OCC1CO1 (stereo not drawn) [Compound 295] | 100 | 100 | – | – | 90 | 100 | – | – | – | –
CC(OC(=O)c1cc(-n2c(=O)n(C)c(=S)n(C)c2=O)c(F)cc1Cl)C(=O)OCC1CCCO1 (stereo not drawn) [Compound 296] | 100 | 100 | – | – | 90 | 100 | – | – | – | –
CC(OC(=O)c1cc(-n2c(=O)n(C)c(=S)n(C)c2=O)c(F)cc1Cl)C(=O)OCC1COC(C)(C)O1 (stereo not drawn) [Compound 297] | 100 | 100 | 85 | 100 | 95 | 100 | – | – | – | –
CCOC(=O)C(CC)OC(=O)c1cc(-n2c(=O)n(C)c(=S)n(C)c2=O)c(F)cc1Cl (stereo not drawn) [Compound 299] | – | 100 | 85 | 100 | – | – | – | – | – | –
CCC(OC(=O)c1cc(-n2c(=O)n(C)c(=S)n(C)c2=O)c(F)cc1Cl)C(=O)OCCF (stereo not drawn) [Compound 300, 2-chloro-4-fluoro-5-(3,5-dimethyl-2,6-dioxo-4-thio-1,3,5-triazine-1-yl)benzoic acid (1-(2-fluoroethoxycarbonyl))propyl ester] | – | 100 | – | – | – | – | 100 | – | – | –
CCC(OC(=O)c1cc(-n2c(=O)n(C)c(=S)n(C)c2=O)c(F)cc1Cl)C(=O)OCCCl (stereo not drawn) [Compound 301] | 100 | 100 | – | – | – | – | – | – | – | –
CCC(OC(=O)c1cc(-n2c(=O)n(C)c(=S)n(C)c2=O)c(F)cc1Cl)C(=O)OCCCCl (stereo not drawn) [Compound 302] | 100 | 100 | – | – | 90 | 100 | – | – | – | –
CCC(OC(=O)c1cc(-n2c(=O)n(C)c(=S)n(C)c2=O)c(F)cc1Cl)C(=O)OCCCCCl (stereo not drawn) [Compound 303] | 100 | 100 | – | – | 85 | 100 | – | – | – | –
CCC(OC(=O)c1cc(-n2c(=O)n(C)c(=S)n(C)c2=O)c(F)cc1Cl)C(=O)OCC1CC1 (stereo not drawn) [Compound 304] | 100 | 100 | – | – | 80 | 100 | – | – | – | –
CCOC(=O)C(OC(=O)c1cc(-n2c(=O)n(C)c(=S)n(C)c2=O)c(F)cc1Cl)C(C)C (stereo not drawn) [Compound 305] | 100 | 100 | – | – | – | – | – | – | – | –
CCOC(=O)C(C)(C)OC(=O)c1cc(-n2c(=O)n(C)c(=S)n(C)c2=O)c(F)cc1Cl [Compound 306, 2-chloro-4-fluoro-5-(3,5-dimethyl-2,6-dioxo-4-thio-1,3,5-triazine-1-yl)benzoic acid (1-methyl-1-ethoxycarbonyl)ethyl ester] | – | – | – | – | – | – | 100 | – | – | –
